Source: PubChem BioAssay AID2060901 (Molecular Pharmacology Branch, DTP, NCI, 2025)
Several values for one entry are separate records, joined by “and”; a condition that tells them apart may be missing. Equal values may be shown once.

System: 422866-222-R5-J1-PDC complex spheroids viability
Experiment: Anticancer human tumor 422866-222-R5-J1-PDC patient-derived pancreatic adenocarcinoma cell line growth inhibition [RAS]
Conditions: for viability, T/C: stronger effect = lower value; active = viability on the fitted dose curve at most 10% of control; inactive = the rest
In short: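 Multi-cell-type spheroids: tumor cells plus HUVEC endothelial cells and mesenchymal stem cells. RAS-pathway inhibitors were combined with targeted agents, each dosed in half-log steps down from clinical Cmax, or from 10 microM when Cmax was unknown.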
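Note: spheroids exposed to compounds for 7 days.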
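Throughout, for viability, T/C: 100% = DMSO vehicle control viability.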

CC(Nc1ccc2c(c1)OCCn1cc(N3C(=O)OCC3C(F)F)nc1-2)C(N)=O (stereo unspecified) + CCn1c(-c2cc(N3CCN(C)CC3)cnc2C(C)OC)c2c3cc(ccc31)-c1csc(n1)CC(NC(=O)C1CC1C)C(=O)N1CCCC(N1)C(=O)OCC(C)(C)C2
inactive: viability, T/C (second compound 0.000949 µM, first compound 0.0316 µM) 24.6% | viability, T/C (second compound 0.000949 µM, first compound 0.1 µM) 19% | viability, T/C (second compound 0.000949 µM, first compound 0.316 µM) 13% | viability, T/C (second compound 0.000949 µM, first compound 1 µM) 11.9% | viability, T/C (second compound 0.000949 µM, first compound 3.16 µM) 9.45% | viability, T/C (second compound 0.003 µM, first compound 0.0316 µM) 16.9% | viability, T/C (second compound 0.003 µM, first compound 0.1 µM) 14.2% | viability, T/C (second compound 0.003 µM, first compound 0.316 µM) 9.14% | viability, T/C (second compound 0.00949 µM, first compound 0.0316 µM) 16.1% | viability, T/C (second compound 0.00949 µM, first compound 0.1 µM) 12.1% | viability, T/C (second compound 0.03 µM, first compound 0.0316 µM) 13.4% | viability, T/C (second compound 0.03 µM, first compound 0.1 µM) 11.8% | viability, T/C (second compound 0.0949 µM, first compound 0.0316 µM) 15.5% | viability, T/C (second compound 0.0949 µM, first compound 0.1 µM) 12.1% | viability, T/C (second compound 0.3 µM, first compound 0.0316 µM) 13.9% | viability, T/C (second compound 0.3 µM, first compound 0.1 µM) 11.8%
< 31.6 nM: IC50 (curve of first compound, second compound 0.000949 µM) | IC50 (curve of first compound, second compound 0.003 µM) | IC50 (curve of first compound, second compound 0.00949 µM) | IC50 (curve of first compound, second compound 0.03 µM) | IC50 (curve of first compound, second compound 0.0949 µM) | IC50 (curve of first compound, second compound 0.3 µM)
active: viability, T/C (second compound 0.000949 µM, first compound 10 µM) 10.7% | viability, T/C (second compound 0.003 µM, first compound 1 µM) 8.16% | viability, T/C (second compound 0.003 µM, first compound 3.16 µM) 6.87% | viability, T/C (second compound 0.003 µM, first compound 10 µM) 5.82% | viability, T/C (second compound 0.00949 µM, first compound 0.316 µM) 9.35% | viability, T/C (second compound 0.00949 µM, first compound 1 µM) 6.74% | viability, T/C (second compound 0.00949 µM, first compound 3.16 µM) 5.6% | viability, T/C (second compound 0.00949 µM, first compound 10 µM) 4.57% | viability, T/C (second compound 0.03 µM, first compound 0.316 µM) 9.06% | viability, T/C (second compound 0.03 µM, first compound 1 µM) 6.27% | viability, T/C (second compound 0.03 µM, first compound 3.16 µM) 5.7% | viability, T/C (second compound 0.03 µM, first compound 10 µM) 4.35% | viability, T/C (second compound 0.0949 µM, first compound 0.316 µM) 8.62% | viability, T/C (second compound 0.0949 µM, first compound 1 µM) 6.05% | viability, T/C (second compound 0.0949 µM, first compound 3.16 µM) 5.83% | viability, T/C (second compound 0.0949 µM, first compound 10 µM) 4.73% | viability, T/C (second compound 0.3 µM, first compound 0.316 µM) 10.2% | viability, T/C (second compound 0.3 µM, first compound 1 µM) 6.6% | viability, T/C (second compound 0.3 µM, first compound 3.16 µM) 5.26% | viability, T/C (second compound 0.3 µM, first compound 10 µM) 4.96%

CC1(C)CCC(Nc2ncc(C(F)(F)F)c(-c3c[nH]c4c(P(C)(C)=O)c(C#N)ccc34)n2)CN1 (stereo unspecified) + C=CC(=O)N1CCN(c2nc(OCC3CCCN3C)nc3c(F)c(-c4nc(N)cc(C)c4C(F)(F)F)c(Cl)cc23)C(C)C1
inactive: viability, T/C (second compound 0.00316 µM, first compound 0.000949 µM) 27.1% | viability, T/C (second compound 0.00316 µM, first compound 0.003 µM) 29.2% | viability, T/C (second compound 0.00316 µM, first compound 0.00949 µM) 25.8% | viability, T/C (second compound 0.00316 µM, first compound 0.03 µM) 25.1% | viability, T/C (second compound 0.00316 µM, first compound 0.0949 µM) 27.3% | viability, T/C (second compound 0.00316 µM, first compound 0.3 µM) 28.8% | viability, T/C (second compound 0.01 µM, first compound 0.000949 µM) 23.1% | viability, T/C (second compound 0.01 µM, first compound 0.003 µM) 20.7% | viability, T/C (second compound 0.01 µM, first compound 0.00949 µM) 28.3% | viability, T/C (second compound 0.01 µM, first compound 0.03 µM) 24.7% | viability, T/C (second compound 0.01 µM, first compound 0.0949 µM) 26.8% | viability, T/C (second compound 0.01 µM, first compound 0.3 µM) 28.3% | viability, T/C (second compound 0.0316 µM, first compound 0.000949 µM) 24.6% | viability, T/C (second compound 0.0316 µM, first compound 0.003 µM) 24.4% | viability, T/C (second compound 0.0316 µM, first compound 0.00949 µM) 22.2% | viability, T/C (second compound 0.0316 µM, first compound 0.03 µM) 23.3% | viability, T/C (second compound 0.0316 µM, first compound 0.0949 µM) 27.2% | viability, T/C (second compound 0.0316 µM, first compound 0.3 µM) 27.4% | viability, T/C (second compound 0.1 µM, first compound 0.000949 µM) 24.6% | viability, T/C (second compound 0.1 µM, first compound 0.003 µM) 22.3% | viability, T/C (second compound 0.1 µM, first compound 0.00949 µM) 25.5% | viability, T/C (second compound 0.1 µM, first compound 0.03 µM) 23.4% | viability, T/C (second compound 0.1 µM, first compound 0.0949 µM) 26.6% | viability, T/C (second compound 0.1 µM, first compound 0.3 µM) 27.6% | viability, T/C (second compound 0.316 µM, first compound 0.000949 µM) 20% | viability, T/C (second compound 0.316 µM, first compound 0.003 µM) 20.3% | viability, T/C (second compound 0.316 µM, first compound 0.00949 µM) 25.5% | viability, T/C (second compound 0.316 µM, first compound 0.03 µM) 24.6% | viability, T/C (second compound 0.316 µM, first compound 0.0949 µM) 25.8% | viability, T/C (second compound 0.316 µM, first compound 0.3 µM) 24.5% | viability, T/C (second compound 1 µM, first compound 0.000949 µM) 22.1% | viability, T/C (second compound 1 µM, first compound 0.003 µM) 22.3% | viability, T/C (second compound 1 µM, first compound 0.00949 µM) 21.1% | viability, T/C (second compound 1 µM, first compound 0.03 µM) 24.2% | viability, T/C (second compound 1 µM, first compound 0.0949 µM) 30.4% | viability, T/C (second compound 1 µM, first compound 0.3 µM) 26.2%
< 0.949 nM: IC50 (curve of first compound, second compound 0.00316 µM) | IC50 (curve of first compound, second compound 0.01 µM) | IC50 (curve of first compound, second compound 0.0316 µM) | IC50 (curve of first compound, second compound 0.1 µM) | IC50 (curve of first compound, second compound 0.316 µM) | IC50 (curve of first compound, second compound 1 µM)

C[C@@H](NC(=O)c1ncnc(N)c1Cl)c1ncc(C(=O)Nc2cc(C(F)(F)F)c(Cl)cn2)s1
> 10000 nM: IC50 (curve of compound)
inactive: viability, T/C (compound 0.0316 µM) 131% and 103% (2×) and 113% | viability, T/C (compound 0.1 µM) 124% and 116% (2×) and 104% | viability, T/C (compound 0.316 µM) 119% [middle of 4 runs] | viability, T/C (compound 1 µM) 118% [middle of 4 runs] | viability, T/C (compound 3.16 µM) 104% (2×) and 83.4% and 92.5% | viability, T/C (compound 10 µM) 76.6% [middle of 4 runs]
